Drawing on patent EP4786454A1, “HETEROARYL DERIVATIVE AND USE THEREOF” (priority 2023, dated 2025), this text covers CLint scaled for three compounds.

Where only a bound is given, the exact number is not on record here.

The data set is described as follows: Stability in liver microsomes (mouse). The data set is classed as in vitro ADME, CD-1 mice. Conditions: m (CD-1 mouse liver microsomes), 0.5 mg/mL, read-out: MMS Clint. The procedure:
The purpose of this study was to evaluate the phase I metabolic stability of the assay sample in liver microsomes from CD-1 mice, Sprague-Dawley (SD) rats, beagle dogs, cynomolgus monkeys, and human.
The animal and human liver microsomes used in this assay system were purchased from Xenotech, Corning, or other qualified suppliers.
Preparation of buffer: 73.21 g of potassium phosphate dibasic trihydrate and 10.78 g of potassium dihydrogen phosphate were dissolved in 4000 mL of ultrapure water. The pH of the solution was adjusted to the range of 7.40 ± 0.10 using 10.0% phosphoric acid or 1.00 M potassium hydroxide. Its final concentration was 100 mM.
Preparation of working solutions: An assay sample powder was prepared into a 10.0 mM stock solution with DMSO, and then further diluted with a suitable organic solvent. The control compounds testosterone, diclofenac, and propafenone were prepared into 10.0 mM stock solutions using DMSO, and then further diluted with a suitable organic solvent.
Preparation of liver microsome solution: Microsomes of various species were diluted with 100 mM potassium phosphate buffer to a working solution of 0.56 mg/mL. The final concentration of microsomes in the reaction system was 0.500 mg/mL. Detailed preparation procedures were described in the experimental records.
Preparation of reduced nicotinamide adenine dinucleotide phosphate (NADPH) solution: An appropriate amount of reduced nicotinamide adenine dinucleotide phosphate was dissolved in magnesium chloride solution, and the mixture was shaken to mix well. The final concentrations in the reaction system were 1.00 mM NADPH and 1.00 mM magnesium chloride, respectively. Detailed preparation procedures were described in the experimental records.
Preparation of stop solution: The stop solution was prepared using acetonitrile containing internal standards (tolbutamide and labetalol). The prepared stop solution was stored at 2.0 to 8.0 °C in a refrigerator. Detailed preparation procedures were described in the experimental records. […]
`CC(C)(C)CC(=O)Nc1nc2c(F)cc(C#N)cn2c1C12CC(C1)C2` [Compound 5]: the CLint scaled at 1 µM was less than 38 mL/min/kg. For the compound `CC(C)(C)CC(=O)Nc1nc2c(F)cc(C#N)cn2c1C1=CCCC1` [Compound 3], the CLint scaled at 1 µM was 103 mL/min/kg. The same measure for `CC(C)(C)CC(=O)Nc1nc2c(F)cc(C#N)cn2c1-c1ccc(OC(F)(F)F)cc1` [Compound 1]: 220 mL/min/kg.
